Source: patent publication US5621113A, “4-[(thien-2-yl)methyl]-imidazole analgesics” (priority 1996, dated 1997)
Counter-ions that a name gives are not always drawn. Like-named read-outs stand apart in the source and are kept apart here.

Assays:
[1] = biological target: T1, Alpha2D adrenergic receptor (Rattus norvegicus, UniProt P22909); experiment: Alpha2D adrenergic receptor binding assay (3H-para-aminoclonidine, rat cortex synaptic membranes); set-up: species or system rat (male Wistar)
T1 construct: The cortex is dissected out and homogenized in 20 volumes of HEPES sucrose; from tissue; host or cells: rat brain cortex, synaptic membrane fraction (male Wistar rats, Charles River)
T1 sequence (P22909 1-465): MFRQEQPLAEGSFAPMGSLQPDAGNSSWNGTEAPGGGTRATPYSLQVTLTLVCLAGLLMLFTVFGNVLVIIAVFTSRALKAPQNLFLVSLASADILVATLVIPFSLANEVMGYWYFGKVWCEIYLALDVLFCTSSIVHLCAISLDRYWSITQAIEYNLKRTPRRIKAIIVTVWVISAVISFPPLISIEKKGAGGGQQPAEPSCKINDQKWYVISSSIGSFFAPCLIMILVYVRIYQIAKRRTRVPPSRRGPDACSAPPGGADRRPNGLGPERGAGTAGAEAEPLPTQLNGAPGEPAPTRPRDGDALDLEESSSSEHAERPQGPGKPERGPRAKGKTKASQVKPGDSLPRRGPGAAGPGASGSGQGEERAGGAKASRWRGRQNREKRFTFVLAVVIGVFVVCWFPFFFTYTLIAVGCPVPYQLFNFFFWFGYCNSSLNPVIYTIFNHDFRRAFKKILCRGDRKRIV
Method: Alpha2D adrenergic receptor binding assay
Male, Wistar rats (150-250 g, VAF, Charles River, Kingston, N.Y.) are sacrificed by cervical dislocation and their brains removed and placed immediately in ice cold HEPES buffered sucrose. The cortex is dissected out and homogenized in 20 volumes of HEPES sucrose in a Teflon®-glass homogenizer. The homogenate is centrifuged at 1000 g for 10 min, and the resulting supernatant centrifuged at 42,000 g for 10 min. The resulting pellet is resuspended in 30 volumes of 3 mM potassium phosphate buffer, pH 7.5, preincubated at 25° C. for 30 min and recentrifuged. The resulting pellet is resuspended as described above and used for the receptor binding assay. Incubation is performed in test tubes containing phosphate buffer, 2.5 mM MgCl2, aliquots of the synaptic membrane fraction, the ligand ^3 H-para-aminoclonidine and test drug at 25° C. for 20 min. The incubation is terminated by filtration of the tube contents through glass fiber filter sheets. Following washing of the sheets with 10 mM HEPES buffer, the adhering radioactivity is quantified by liquid scintillation spectrometry.
Binding of the test drug to the receptor is determined by comparing the amount of radiolabeled ligand bound in control tubes without drug to the amount of radiolabeled ligand bound in the presence of the drug. Dose-response data are analyzed with LIGAND, a nonlinear curve fitting program designed specifically for the analysis of ligand binding data. This assay is described by Simmons, R. M. A., and Jones, D. J., Binding of [^3 H-]prazosin and [^3 H-]p-aminoclonidine to α-Adrenoceptors in Rat Spinal Cord, Brain Research 445:338-349, 1988.

[2] = test system: acetylcholine bromide-induced abdominal constriction response; experiment: Mouse Acetylcholine Bromide-Induced Abdominal Constriction Assay; format: in vivo; conditions: for ED50 / inhibition in vivo at 30 mg/kg: Mus musculus; for ED50: 0.5 h, oral, 30 minutes before acetylcholine bromide 5.5 mg/kg i.p., dose producing 50% analgesia; for inhibition in vivo at 30 mg/kg: po
Method: Mouse Acetylcholine Bromide-Induced Abdominal Constriction Assay
The mouse acetylcholine bromide-induced abdominal constriction assay, as described by Collier et al. in Brit. J. Pharmacol. Chem. Ther., 32: 295-310, 1968, with minor modifications was used to assess analgesic potency of the compounds herein. The test drugs or appropriate vehicle were administered orally (p.o.) and 30 minutes later the animal received an intraperitoneal (i.p.) injection of 5.5 mg/kg acetylcholine bromide (Matheson, Coleman and Bell, East Rutherford, N.J.). The mice were then placed in groups of three into glass bell jars and observed for a ten minute observation period for the occurrence of an abdominal constriction response (defined as a wave of constriction and elongation passing caudally along the abdominal wall, accompanied by a twisting of the trunk and followed by extension of the hind limbs). The percent inhibition of this response to a nociceptive stimulus (equated to % analgesia) was calculated as follows: The % Inhibition of response, i.e., % analgesia is equal to the difference between the number of control animals response and the number of drug-treated animals response times 100 divided by the number of control animals responding.
At least 15 animals were used for control and in each of the drug treated groups. At least three doses were used to determine each dose response curve and ED50 (that dose which would produce 50% analgesia). The ED50 values and their 95% fiducial limits were determined by a computer assisted probit analysis.

[3] = displacement of 3H-para-aminoclonidine, rat cortex membranes, 25° C., 20 min, read-out: Ki
[4] = @ 30 mpk (route not given; method: orally)

| Structure (SMILES) | Ki [1] [nM] | ED50 [2] [mg/kg] | also measured |
| --- | --- | --- | --- |
| Cc1ccsc1Cc1c[nH]cn1.Cl [Cp-1, 4-[(3-Methylthien-2-yl)methyl]-1H-imidazole Hydrochloride] | 0.45 | 0.94 | – |
| Cc1ccsc1C(C)c1c[nH]cn1.Cl (stereo not shown) [Cp-2, 4-[1-(3-methylthien-2-yl)ethyl]-1H-imidazole hydrochloride] | 2.1 | 1.4 | – |
| Brc1ccsc1Cc1c[nH]cn1.Cl [Cp-3, 4-[(3-Bromothien-2-yl)methyl]-1H-imidazole Hydrochloride] | 0.35 | 1.7 | – |
| CC(c1c[nH]cn1)c1sccc1Br.Cl (stereo not shown) [Cp-4, 4-[1-(3-Bromothien-2-yl)-ethyl]-1H-imidazole Hydrochloride] | 0.96 | 2.1 | – |
| Cc1csc(Cc2c[nH]cn2)c1C [Cp-5, 4-[(3,4-dimethylthien-2-yl)methyl]-1H-imidazole hydrochloride] | 0.17 | – | inhibition in vivo at 30 mg/kg ([2]; @ 30 mpk/po): 100% |
| Cc1csc(C(C)c2c[nH]cn2)c1C (stereo not shown) [Cp-6, 4-[-(3,4-Dimethylthien-2-yl)ethyl]-1H-imidazole Fumarate] | 0.75 | – | inhibition in vivo at 30 mg/kg ([2]; @ 30 mpk/po): 87% |
| Brc1csc(Cc2c[nH]cn2)c1Br [Cp-7, 4-[-(3,4-dibromothien-2-yl)methyl]-1H-imidazole fumarate] | 0.43 | – | inhibition in vivo at 30 mg/kg ([2]; @ 30 mpk/po): 80% |
| CC(c1c[nH]cn1)c1scc(Br)c1Br (stereo not shown) [Cp-8, 4-[(3,4-dibromothien-2-yl)ethyl]-1H-imidazole fumarate] | 0.07 | 5.7 | – |
| Brc1csc(Cc2c[nH]cn2)c1 [Cp-9, 4-[-(4-Bromothien-2-yl)methyl]1H-imidazole Hydrochloride] | 1.4 | – | inhibition in vivo at 30 mg/kg ([2]; @ 30 mpk/po): 80% |
| CC(C)=C(c1c[nH]cn1)c1sccc1C [drawing 24, reference compound] | – | – | Ki [1, 3]: 335 nM; Mouse Abdominal Constriction % Inhibition [2, 4]: 47% |
| CC(C)=C(c1c[nH]cn1)c1sccc1C [drawing 25, reference compound] | – | – | Ki [1, 3]: 1000 nM; Mouse Abdominal Constriction % Inhibition [2, 4]: 73% |
| Cc1ccc(Cc2c[nH]cn2)s1 [reference compound] | 3.6 | – | inhibition in vivo at 30 mg/kg [2, 4]: 33% |
| c1csc(Cc2c[nH]cn2)c1 [reference compound] | 8.7 | – | inhibition in vivo at 30 mg/kg [2, 4]: 60% |
| CCC(c1c[nH]cn1)c1sccc1C (stereo not shown) [reference compound] | 8.3 | – | inhibition in vivo at 30 mg/kg [2, 4]: 100% |
